Results as given in publication PMC5218480 (PLoS ONE, 2017).

Test system: MV-4-11 cells
Experiment: Gene expression microarray analysis (Affymetrix PrimeView) and GSEA
Format: cell-based, human
Conditions: MV-4-11, 48 hours, 1 μM each

## Nc1ncn([C@@H]2O[C@H](CO)[C@@H](O)[C@H]2O)c(=O)n1 [azacitidine]
  genes up-regulated greater than 2-fold relative to vehicle control: 62 genes
